Literature values as cited in patent US20150376703A1, “METHOD AND SYSTEM TO PREDICT RESPONSE TO PAIN TREATMENTS” (PATHWAY GENOMICS CORPORATION, priority 2013, published 2015).
One block for each molecule: values may come before it.

Assays:
[1] = tested on: Glycoprotein IIIa (PLA1/A2) subunit of glycoprotein IIb/IIIa; conditions: patients carrying the PLA2 polymorphism
KCNE2 (T8A in MiRP 1) = target: T1, KCNE2 (T8A in MiRP 1) (Homo sapiens, UniProt Q12809+Q9Y6J6, T8A)
T1 construct: host or cells: patients (endogenous protein)
T1 sequence (Q9Y6J6 whole entry T8A): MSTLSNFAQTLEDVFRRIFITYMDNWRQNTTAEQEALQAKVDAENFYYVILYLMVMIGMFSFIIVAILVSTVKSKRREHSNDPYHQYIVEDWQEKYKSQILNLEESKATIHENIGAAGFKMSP
T1 sequence (Q12809 whole entry): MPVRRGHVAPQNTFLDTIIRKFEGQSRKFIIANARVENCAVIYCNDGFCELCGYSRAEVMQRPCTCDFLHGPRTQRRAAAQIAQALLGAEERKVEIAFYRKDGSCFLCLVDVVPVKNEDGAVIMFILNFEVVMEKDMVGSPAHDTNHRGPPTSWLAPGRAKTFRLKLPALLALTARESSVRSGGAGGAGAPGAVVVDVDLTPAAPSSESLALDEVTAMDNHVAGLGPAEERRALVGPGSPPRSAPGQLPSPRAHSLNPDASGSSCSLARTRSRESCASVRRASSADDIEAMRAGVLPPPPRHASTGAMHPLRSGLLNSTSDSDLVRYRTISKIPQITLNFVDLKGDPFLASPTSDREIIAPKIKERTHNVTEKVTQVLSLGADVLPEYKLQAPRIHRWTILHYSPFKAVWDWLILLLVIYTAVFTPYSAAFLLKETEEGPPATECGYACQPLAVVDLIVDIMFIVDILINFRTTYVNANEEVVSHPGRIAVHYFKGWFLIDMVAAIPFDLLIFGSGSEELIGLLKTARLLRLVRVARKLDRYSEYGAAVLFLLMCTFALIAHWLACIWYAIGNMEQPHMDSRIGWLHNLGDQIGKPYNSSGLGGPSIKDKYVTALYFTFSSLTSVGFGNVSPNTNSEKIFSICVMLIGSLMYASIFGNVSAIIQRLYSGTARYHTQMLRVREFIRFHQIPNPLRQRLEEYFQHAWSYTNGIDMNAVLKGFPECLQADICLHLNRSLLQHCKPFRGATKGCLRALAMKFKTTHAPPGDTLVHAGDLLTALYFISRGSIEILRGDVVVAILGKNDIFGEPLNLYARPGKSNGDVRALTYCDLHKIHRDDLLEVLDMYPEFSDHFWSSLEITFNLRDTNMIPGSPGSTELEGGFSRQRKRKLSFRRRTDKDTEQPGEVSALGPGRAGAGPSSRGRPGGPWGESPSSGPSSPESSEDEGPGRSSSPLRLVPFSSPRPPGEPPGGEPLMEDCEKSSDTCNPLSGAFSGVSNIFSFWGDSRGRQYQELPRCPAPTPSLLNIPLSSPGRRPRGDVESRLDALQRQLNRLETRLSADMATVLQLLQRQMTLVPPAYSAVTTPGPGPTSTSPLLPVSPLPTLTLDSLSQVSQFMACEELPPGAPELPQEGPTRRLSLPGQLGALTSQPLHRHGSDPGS

Alpha-Adducin = conditions: patients who share the 460Gly/Trp polymorphism
5-Lipoxygenase (ALOX5) = target: T2, 5-Lipoxygenase (ALOX5) (Homo sapiens, UniProt P09917); conditions: patients who share a specific tandem repeat in the promoter
T2 construct: host or cells: patients (endogenous enzyme)
T2 sequence (P09917 1-674): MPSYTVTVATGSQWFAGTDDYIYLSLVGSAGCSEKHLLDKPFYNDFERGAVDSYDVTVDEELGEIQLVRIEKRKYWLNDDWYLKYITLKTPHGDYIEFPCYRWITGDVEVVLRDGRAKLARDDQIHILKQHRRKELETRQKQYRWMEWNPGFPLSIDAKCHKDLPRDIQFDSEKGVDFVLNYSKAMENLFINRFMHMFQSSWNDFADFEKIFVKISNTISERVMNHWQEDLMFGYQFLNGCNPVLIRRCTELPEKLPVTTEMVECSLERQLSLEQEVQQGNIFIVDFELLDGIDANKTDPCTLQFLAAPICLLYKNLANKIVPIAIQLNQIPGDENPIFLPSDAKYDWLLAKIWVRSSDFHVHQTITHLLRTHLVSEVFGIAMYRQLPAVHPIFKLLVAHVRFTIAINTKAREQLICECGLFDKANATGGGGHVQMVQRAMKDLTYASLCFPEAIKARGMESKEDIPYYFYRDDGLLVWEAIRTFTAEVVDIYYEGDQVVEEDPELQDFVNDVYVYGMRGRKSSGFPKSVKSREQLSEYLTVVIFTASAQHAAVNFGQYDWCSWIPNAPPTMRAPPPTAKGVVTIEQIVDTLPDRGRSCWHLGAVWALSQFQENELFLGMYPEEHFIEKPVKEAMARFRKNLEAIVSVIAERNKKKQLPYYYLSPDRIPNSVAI

ACE (I/D) = target: T3, ACE (I/D) (Homo sapiens, UniProt P12821); conditions: patients bearing the ACE-II-Allele
T3 construct: host or cells: patients (endogenous enzyme)
T3 sequence (P12821 30-1306): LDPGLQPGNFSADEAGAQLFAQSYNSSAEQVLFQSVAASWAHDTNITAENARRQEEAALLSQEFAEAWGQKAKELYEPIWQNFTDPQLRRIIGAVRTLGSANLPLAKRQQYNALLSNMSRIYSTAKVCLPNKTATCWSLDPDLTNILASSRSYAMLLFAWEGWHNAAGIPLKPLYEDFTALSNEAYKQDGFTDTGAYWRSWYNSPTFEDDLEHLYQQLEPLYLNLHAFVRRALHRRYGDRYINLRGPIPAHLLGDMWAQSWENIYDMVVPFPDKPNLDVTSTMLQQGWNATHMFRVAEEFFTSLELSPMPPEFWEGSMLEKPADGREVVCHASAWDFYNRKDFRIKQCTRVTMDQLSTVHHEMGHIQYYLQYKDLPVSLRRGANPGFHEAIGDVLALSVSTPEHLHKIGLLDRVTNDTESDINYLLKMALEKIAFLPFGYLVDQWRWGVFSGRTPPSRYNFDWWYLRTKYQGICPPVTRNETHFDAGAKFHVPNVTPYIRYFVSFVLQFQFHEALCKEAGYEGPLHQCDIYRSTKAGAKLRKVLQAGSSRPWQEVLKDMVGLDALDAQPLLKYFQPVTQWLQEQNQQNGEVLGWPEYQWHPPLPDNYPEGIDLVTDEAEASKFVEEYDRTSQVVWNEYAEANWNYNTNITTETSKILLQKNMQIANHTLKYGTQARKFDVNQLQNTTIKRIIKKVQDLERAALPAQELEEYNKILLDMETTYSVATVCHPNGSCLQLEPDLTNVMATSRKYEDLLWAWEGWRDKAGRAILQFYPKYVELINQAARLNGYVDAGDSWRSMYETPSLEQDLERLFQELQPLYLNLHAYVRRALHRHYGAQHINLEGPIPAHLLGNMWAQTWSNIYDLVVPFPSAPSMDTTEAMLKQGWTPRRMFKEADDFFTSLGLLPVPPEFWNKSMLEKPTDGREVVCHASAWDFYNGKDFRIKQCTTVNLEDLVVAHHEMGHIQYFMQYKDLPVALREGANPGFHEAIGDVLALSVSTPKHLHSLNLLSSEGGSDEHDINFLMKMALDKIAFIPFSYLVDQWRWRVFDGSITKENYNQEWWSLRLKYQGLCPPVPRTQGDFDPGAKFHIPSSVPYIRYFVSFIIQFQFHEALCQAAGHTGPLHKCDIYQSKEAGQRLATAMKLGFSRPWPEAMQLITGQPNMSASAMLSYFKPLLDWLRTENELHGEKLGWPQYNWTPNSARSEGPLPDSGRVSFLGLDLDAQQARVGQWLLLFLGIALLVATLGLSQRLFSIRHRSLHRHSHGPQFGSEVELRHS

Molecule: CC(=O)Oc1ccccc1C(=O)O [Aspirin]
- Clinical Result: antiplatelet effect [1]: Reduced response in patients

Molecule: O=c1[nH]c2ccccc2n1CCCN1CCN(C(c2ccccc2)c2ccccc2)CC1 [Oxatomid]
- Clinical Result: adverse effect (KCNE2 (T8A in MiRP 1)): Drug induced Long-QT-

Molecule: NS(=O)(=O)c1cc2c(cc1Cl)NCNS2(=O)=O [Hydrochlorothiazide]
- Clinical Result: sensitivity (Alpha-Adducin): hypertension). Higher

- Clinical Result (5-Lipoxygenase (ALOX5)): No effect in patients who
Molecule: CC(c1cc2ccccc2s1)N(O)C(N)=O (centres unmarked) [Zileuton]

Molecule: C[C@H](N[C@@H](CCc1ccccc1)C(=O)O)C(=O)N1CCC[C@H]1C(=O)O [Enalaprilat]
- Clinical Result: response (ACE (I/D)): Better response of patients

Molecule: Cc1cc(NS(=O)(=O)c2ccc(N)cc2)no1 [Sulfamethoxazol]
- Clinical Result: adverse effect (KCNE2 (T8A in MiRP 1)): Drug induced Long-QT-

- Clinical Result: response (ACE (I/D)): Better response of patients
Molecule: CCOC(=O)[C@H](CCc1ccccc1)N[C@@H](C)C(=O)N1CCC[C@H]1C(=O)O [enalapril]

B1: Abciximab (antibody, chains of the INN, looked up, V domains shown)
VH: EVQLQQSGTVLARPGASVKMSCEASGYTFTNYWMHWVKQRPGQGLEWIGAIYPGNSDTSYIQKFKGKAKLTAVTSTTSVYMELSSLTNEDSAVYYCTLYDGYYVFAYWGQGTLVTVSA
VL: EIVLTQSPVTLSVTPGDSVSLSCRASRDISNNLHWFQQTSHESPRLLIKYASQSMSGIPSRFSGSGSGTDFTLSINSVETEDFGMYFCQQTNSWPYTFGGGTKLEIK
- Clinical Result: antiplatelet effect [1]: Reduced response in patients
